Assay results taken from PubChem BioAssay AID328 (DTP/NCI, 2004).
Values joined by “and” are separate entries in the source; they are usually repeats but may differ in a detail not shown here. Equal entries are not always repeated. Inconclusive results and toxic doses are left out. Residues, ends and D or L forms follow the SMILES beside them. *: point of attachment. Cbz = O=C(OCc1ccccc1)*; OBn = c1ccc(CO*)cc1; Bn = c1ccc(C*)cc1

Test system: BDF1 mice, P388 leukemia ip, median survival T/C
Experiment: NCI In Vivo Anticancer Drug Screen. Data for tumor model P388 Leukemia (intraperitoneal) in B6D2F1 (BDF1) mice
Conditions: endpoint: median survival time, higher = longer survival
How it was run: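 Read-out is survival of treated animals expressed relative to the vehicle group, as a T/C ratio.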

[1] = dose: 25.0 mg/kg/injection, schedule: Q01DX009 (ip), vehicle: saline
[2] = dose: 50.0 mg/kg/injection, schedule: Q01DX009 (ip), vehicle: saline
[3] = dose: 100.0 mg/kg/injection, schedule: Q01DX009 (ip), vehicle: saline
[4] = dose: 200.0 mg/kg/injection, schedule: Q01DX009 (ip), vehicle: saline
[5] = dose: 100.0 mg/kg/injection, schedule: Q01DX009 (ip), vehicle: saline with Tween-80
[6] = dose: 200.0 mg/kg/injection, schedule: Q01DX009 (ip), vehicle: saline with Tween-80
[7] = dose: 400.0 mg/kg/injection, schedule: Q01DX009 (ip), vehicle: saline with Tween-80
[8] = dose: 100.0 mg/kg/injection, schedule: Q04DX003 (ip), vehicle: saline with Tween-80
[9] = dose: 200.0 mg/kg/injection, schedule: Q04DX003 (ip), vehicle: saline with Tween-80
[10] = dose: 400.0 mg/kg/injection, schedule: Q04DX003 (ip), vehicle: saline with Tween-80
[11] = dose: 50.0 mg/kg/injection, schedule: Q01DX009 (ip), vehicle: saline with Tween-80
[12] = dose: 100.0 mg/kg/injection, schedule: Q04DX003 (ip), vehicle: saline
[13] = dose: 200.0 mg/kg/injection, schedule: Q04DX003 (ip), vehicle: saline
[14] = dose: 400.0 mg/kg/injection, schedule: Q04DX003 (ip), vehicle: saline

CS(=O)(=O)Nc1ccc(C(=O)CCN2CCCCCC2)cc1
T/C [1]: 108 % of control and 110 % of control
T/C [2]: 110 % of control and 112 % of control and 113 % of control
T/C [3]: 117 % of control
T/C [4]: 117 % of control

Cc1ccccc1C[P+](c1ccccc1)(c1ccccc1)c1ccccc1
T/C (dose: 0.39 mg/kg/injection, schedule: Q01DX009 (ip), vehicle: Klucel (hydroxypropylcellulose) (HPC)): 100 % of control
T/C (dose: 0.39 mg/kg/injection, schedule: Q04DX003 (ip), vehicle: Klucel (hydroxypropylcellulose) (HPC)): 100 % of control
T/C (dose: 0.78 mg/kg/injection, schedule: Q01DX009 (ip), vehicle: Klucel (hydroxypropylcellulose) (HPC)): 108 % of control
T/C (dose: 0.78 mg/kg/injection, schedule: Q04DX003 (ip), vehicle: Klucel (hydroxypropylcellulose) (HPC)): 122 % of control
T/C (dose: 1.56 mg/kg/injection, schedule: Q01DX009 (ip), vehicle: Klucel (hydroxypropylcellulose) (HPC)): 112 % of control
T/C (dose: 1.56 mg/kg/injection, schedule: Q04DX003 (ip), vehicle: Klucel (hydroxypropylcellulose) (HPC)): 113 % of control
T/C (dose: 3.12 mg/kg/injection, schedule: Q01DX009 (ip), vehicle: saline): 150 % of control
T/C (dose: 3.5 mg/kg/injection, schedule: Q04DX003 (ip), vehicle: Klucel (hydroxypropylcellulose) (HPC)): 104 % of control
T/C (dose: 13.2 mg/kg/injection, schedule: Q04DX003 (ip), vehicle: saline with Tween-80): 113 % of control
T/C (dose: 30.0 mg/kg/injection, schedule: Q04DX003 (ip), vehicle: saline with Tween-80): 104 % of control

COc1cc2ccc3c[n+]4ccccc4cc3c2cc1OC
T/C (dose: 25.0 mg/kg/injection, schedule: Q01DX009 (ip), vehicle: Klucel (hydroxypropylcellulose) (HPC)): 102 % of control
T/C [1]: 112 % of control
T/C (dose: 50.0 mg/kg/injection, schedule: Q01DX009 (ip), vehicle: Klucel (hydroxypropylcellulose) (HPC)): 116 % of control
T/C [2]: 117 % of control
T/C [3]: 114 % of control
T/C (dose: 150.0 mg/kg/injection, schedule: Q01DX009 (ip), vehicle: Klucel (hydroxypropylcellulose) (HPC)): 118 % of control

N#CC(Br)C(N)=O (stereo unspecified)
T/C (dose: 2.5 mg/kg/injection, schedule: Q01DX009 (ip), vehicle: saline): 98 % of control
T/C (dose: 5.0 mg/kg/injection, schedule: Q01DX009 (ip), vehicle: saline): 120 % of control

OC1(C2(O)CCCC2)CCCC1
T/C [5]: 109 % of control
T/C [6]: 95 % of control
T/C [7]: 100 % of control

CC1CCC2(C(=O)O)CCC3(C)C(=CCC4C5(C)CCC(O)C(C)(C)C5CCC43C)C2C1C (stereo unspecified)
T/C (dose: 100.0 mg/kg/injection, schedule: Q01DX010 (ip), vehicle: acetone): 120 % of control
T/C (dose: 200.0 mg/kg/injection, schedule: Q01DX010 (ip), vehicle: acetone): 115 % of control
T/C (dose: 400.0 mg/kg/injection, schedule: Q01DX010 (ip), vehicle: acetone): 120 % of control

CCCCCCCC(=O)CCCCC
T/C [8]: 100 % of control
T/C [9]: 95 % of control
T/C [10]: 91 % of control

COc1ccc(OC)c(/C=C/C(=O)NCC(O)CO)c1 (stereo unspecified)
T/C [11]: 95 % of control
T/C [5]: 100 % of control

C[C@]1(O)CC[C@H]2[C@@H]3CCC4=CC(=O)CC[C@]4(C)[C@@]3(Cl)[C@@H](O)C[C@@]21C
T/C (dose: 100.0 mg/kg/injection, schedule: Q01DX009 (ip), vehicle: saline sonified): 100 % of control
T/C [8]: 95 % of control
T/C (dose: 200.0 mg/kg/injection, schedule: Q01DX009 (ip), vehicle: saline sonified): 100 % of control
T/C [9]: 100 % of control
T/C (dose: 400.0 mg/kg/injection, schedule: Q01DX009 (ip), vehicle: saline sonified): 100 % of control
T/C [10]: 100 % of control

CC(C)NC(=O)c1ccccc1Sc1ccccc1
T/C [11]: 100 % of control
T/C [5]: 106 % of control
T/C [6]: 108 % of control

Cc1ccc(NC(=O)Nc2ccccc2Cl)cc1Cl
T/C [12]: 104 % of control
T/C [13]: 95 % of control
T/C [14]: 95 % of control

CC(C)CC(NC(=O)C(CSCc1ccccc1)NC(=O)OCc1ccccc1)C(=O)OCc1ccccc1 (stereo unspecified) (Cbz-Cys(Bn)-Leu-OBn; configuration not given here)
T/C (dose: 100.0 mg/kg/injection, schedule: Q04DX003 (ip), vehicle: gum acacia): 104 % of control
T/C (dose: 200.0 mg/kg/injection, schedule: Q04DX003 (ip), vehicle: gum acacia): 100 % of control
T/C (dose: 400.0 mg/kg/injection, schedule: Q04DX003 (ip), vehicle: gum acacia): 100 % of control

COC(=O)C(C)C(=O)OC
T/C (dose: 100.0 mg/kg/injection, schedule: Q01DX001 (ip), vehicle: saline): 100 % of control
T/C [3]: 90 % of control
T/C (dose: 200.0 mg/kg/injection, schedule: Q01DX001 (ip), vehicle: saline): 100 % of control
T/C [4]: 100 % of control
T/C (dose: 400.0 mg/kg/injection, schedule: Q01DX001 (ip), vehicle: saline): 113 % of control
T/C (dose: 400.0 mg/kg/injection, schedule: Q01DX009 (ip), vehicle: saline): 109 % of control

CC[C@](C)(O)C(=O)O[C@H]1C(=O)O[C@@H]2C[C@H]3C(C)=CC(=O)[C@@H](O)[C@]3(C)[C@H]3[C@@]4(O)OC[C@]32[C@@H]1[C@@H](C)[C@H]4O
T/C (dose: 0.06 mg/kg/injection, schedule: Q01DX009 (ip), vehicle: saline with Tween-80): 100 % of control
T/C (dose: 0.07 mg/kg/injection, schedule: Q01DX010 (ip), vehicle: saline): 105 % of control
T/C (dose: 0.12 mg/kg/injection, schedule: Q01DX009 (ip), vehicle: saline with Tween-80): 100 % of control
T/C (dose: 0.12 mg/kg/injection, schedule: Q01DX009 (ip), vehicle: saline): 100 % of control
T/C (dose: 0.15 mg/kg/injection, schedule: Q01DX010 (ip), vehicle: saline): 95 % of control
T/C (dose: 0.2 mg/kg/injection, schedule: Q01DX010 (ip), vehicle: saline): 100 % of control
T/C (dose: 0.25 mg/kg/injection, schedule: Q01DX009 (ip), vehicle: saline): 108 % of control
T/C (dose: 0.25 mg/kg/injection, schedule: Q01DX010 (ip), vehicle: steriod suspending solution): 177 % of control
T/C (dose: 0.3 mg/kg/injection, schedule: Q01DX010 (ip), vehicle: saline): 109 % of control and 110 % of control
T/C (dose: 0.44 mg/kg/injection, schedule: Q01DX010 (ip), vehicle: saline): 104 % of control
T/C (dose: 0.5 mg/kg/injection, schedule: Q01DX009 (ip), vehicle: saline): 104 % of control
T/C (dose: 0.5 mg/kg/injection, schedule: Q01DX010 (ip), vehicle: steriod suspending solution): 231 % of control
T/C (dose: 0.51 mg/kg/injection, schedule: Q01DX009 (ip), vehicle: saline with Tween-80): 161 % of control
T/C (dose: 0.6 mg/kg/injection, schedule: Q01DX010 (ip), vehicle: saline): 150 % of control
T/C (dose: 0.64 mg/kg/injection, schedule: Q01DX009 (ip), vehicle: saline with Tween-80): 171 % of control
T/C (dose: 0.66 mg/kg/injection, schedule: Q01DX010 (ip), vehicle: saline): 122 % of control
T/C (dose: 1.0 mg/kg/injection, schedule: Q01DX009 (ip), vehicle: saline + alcohol): 87 % of control

C=CCNC(=O)C12CC3CC(CC(C3)C1)C2
T/C [11]: 93 % of control
T/C [5]: 99 % of control
T/C [6]: 103 % of control

COc1ccc(/C=C/C(=O)c2ccccc2)cc1
T/C [5]: 97 % of control
T/C [8]: 104 % of control
T/C [6]: 98 % of control
T/C [9]: 104 % of control
T/C [7]: 98 % of control
T/C [10]: 104 % of control

Cc1cnc(C#N)c(-n2ccnc2)n1
T/C (dose: 12.5 mg/kg/injection, schedule: Q01DX009 (ip), vehicle: water): 92 % of control
T/C (dose: 25.0 mg/kg/injection, schedule: Q01DX009 (ip), vehicle: water): 100 % of control
T/C (dose: 50.0 mg/kg/injection, schedule: Q01DX009 (ip), vehicle: water): 95 % of control
T/C (dose: 100.0 mg/kg/injection, schedule: Q01DX009 (ip), vehicle: water): 100 % of control
T/C (dose: 200.0 mg/kg/injection, schedule: Q01DX009 (ip), vehicle: water): 101 % of control

CC(=O)C1=CN(Cc2ccccc2)C(O)CC1C(N)=O (stereo unspecified)
T/C [11]: 101 % of control
T/C [5]: 109 % of control
T/C [6]: 115 % of control

COc1cccc(/C=C(/SC)S(C)=O)c1OC (stereo unspecified)
T/C [12]: 106 % of control
T/C [13]: 115 % of control
T/C [14]: 120 % of control
